Patent publication US5481021A, “Phenyl amidines derivatives useful as platelet aggregation inhibitors” (G. D. Searle & Co., priority 1994, dated 1996)
Counter-ions that a name gives are not always drawn.

Legend:
[1] = system: Platelet aggregation in dog PRP; experiment: In-Vitro Platelet Aggregation in PRP (ADP induced); type: cell-based; details: Canis lupus familiaris; for IC50: ADP 50 μm, 37° C.; for inhibition at 10 µM: ADP, test concentration 1 × 10^-5
Procedure: In-Vitro Platelet Aggregation in PRP
(§1) Healthy male or female dogs were fasted for 8 hours prior to drawing blood; then 30 ml whole blood was collected using a butterfly needle and 30 cc plastic syringe with 3 ml of 0.129M buffered sodium citrate (3.8%). The syringe was rotated carefully as blood was drawn to mix the citrate. Platelet-rich plasma (PRP) was prepared by centrifugation at 975×g for 3.17 minutes at room temperature, allowing the centrifuge to coast to a stop without braking. The PRP was removed from the blood with a plastic pipette and placed in a plastic capped, 50 ml Corning conical sterile centrifuge tube which was held at room temperature. Platelet poor plasma (PPP) was prepared by centrifuging the remaining blood at 2000×g for 15 minutes at room temperature allowing the centrifuge to coast to a stop without braking. The PRP was adjusted with PPP to a count of 2-3×10^8 platelets per ml. 400 for 5-(p-cyanophenyl)pentanoic acid in Section C of Example 1.
as §1, with “400 μl of the PRP preparation and 50 μl of the compound to be tested or saline were preincubated” for “400”, “1 minute at 37° C.” for “5-(p-cyanophenyl)pentanoic acid”, “a BioData aggregometer (BioData, Horsham, Pa.). 50 μl” for “Section C”, “adenosine 5'diphosphate (ADP) (50 μm final concentration) was added to the cuvettes and the aggregation was monitored for 1 minute. All compounds are tested in duplicate. Results are calculated as follows:” for “Example 1.”
Percent of control=[(maximal OD minus initial OD of compound) divided by
(maximal OD minus initial OD of control saline)]×100. The %
inhibition=100-(percent of control).

[2] = target: T1, fibrinogen binding to platelets (gpIIb/IIIa) (Homo sapiens, UniProt P05106+P08514); experiment: Fibrinogen Binding Assay (125I-fibrinogen binding to ADP-activated platelets); details: ADP 10 μM, 125I-fibrinogen 0.3 μM, 40 min at 37° C., read-out: Human Fg binding IC50
T1 construct: endogenous in cells
Procedure: Fibrinogen binding was performed essentially as described by Plow et al., Blood 70, 110-115 (1987). Briefly, blood from humans who had not been given any antiplatelet drugs in the previous two weeks was collected into 1/10th volume of CCD buffer (100 mM sodium citrates, 136 mM glucose, pH 6.5). The blood was centrifuged for 3 min at 1000×g and platelet rich plasma was transferred to a plastic tube with a plastic pipet and placed on ice. After 15 minutes, 1/2 volume of ice cold CCD buffer was added and the sample was centrifuged at 900×g for 10 min at 2° C. The supernatant was decanted and the platelet pellet was gently resuspended in 1/2 the original volume of ice cold modified Tyrode's buffer (137 mM NaCl, 2.6 mM KCl, 12 mM NaHCO3, 5.5 mM glucose, 15 mM HEPES, 0.5% BSA, pH 7.4). After incubating for 30 minutes at 37° C., the platelet count was adjusted to 4×10^8 platelets/ml with modified Tyrode's buffer. To test samples (final concentration=1×10^8 platelets/ml) were added in sequence: ADP (10 μM), CaCl2 (2 mM), test compound, and ^125 I-fibrinogen (0.3 μM) to the aforesaid final concentrations in a volume of 200 μl. The samples were incubated for 40 min at 37° C. and 50 μl aliquots were centrifuged at 8,000×g through a 20% sucrose solution (400 μl). The tubes were quick frozen and the tips containing the platelet pellet were cut and assayed for bound ^125 I-fibrinogen by gamma scintillation counting. Specific binding was determined in each test by subtracting from the total binding the amount of ^125 I-fibrinogen bound in the presence of a 60-fold excess of unlabeled fibrinogen.

[3] = system: ex vivo collagen induced platelet aggregation; experiment: Inhibition of ex vivo collagen induced aggregation; type: in vivo, dog (Beagle); details: dog, IV
Procedure: INHIBITION OF EX VIVO COLLAGEN INDUCED AGGREGATION BY COMPOUNDS OF THE INVENTION
PURPOSE--The purpose of this assay is to determine the effects of antiplatelet compounds on ex vivo collagen induced platelet aggregation when administered either intravenously or orally to dogs.
Pretreatment (control) blood samples are drawn from either conscious or anesthetized dogs (Beagles) and centrifuged to prepare platelet rich plasma (PRP). Aggregatory response to collagen is measured in an aggregometer and used as Control. Compounds are administered, either intragasterically (either by capsule or stomach tube or intravenously. Blood samples are drawn at predetermined intervals after compound administration, PRP prepared and aggregation to collagen determined. Compound inhibition of aggregation is determined by comparing the aggregation response after compound administration to the pretreatment response. The study is continued for a maximum of 24 hours or until the platelet aggregation returns to control levels. (If aggregation is still inhibited after 7 hours, a blood sample is drawn the following morning and tested.) Duration of activity is determined by the length of time platelet aggregation is inhibited after compound administration.

[4] = Canine intravenous infusion model; type: in vivo

T1 sequence (P08514 32-887 limits assumed): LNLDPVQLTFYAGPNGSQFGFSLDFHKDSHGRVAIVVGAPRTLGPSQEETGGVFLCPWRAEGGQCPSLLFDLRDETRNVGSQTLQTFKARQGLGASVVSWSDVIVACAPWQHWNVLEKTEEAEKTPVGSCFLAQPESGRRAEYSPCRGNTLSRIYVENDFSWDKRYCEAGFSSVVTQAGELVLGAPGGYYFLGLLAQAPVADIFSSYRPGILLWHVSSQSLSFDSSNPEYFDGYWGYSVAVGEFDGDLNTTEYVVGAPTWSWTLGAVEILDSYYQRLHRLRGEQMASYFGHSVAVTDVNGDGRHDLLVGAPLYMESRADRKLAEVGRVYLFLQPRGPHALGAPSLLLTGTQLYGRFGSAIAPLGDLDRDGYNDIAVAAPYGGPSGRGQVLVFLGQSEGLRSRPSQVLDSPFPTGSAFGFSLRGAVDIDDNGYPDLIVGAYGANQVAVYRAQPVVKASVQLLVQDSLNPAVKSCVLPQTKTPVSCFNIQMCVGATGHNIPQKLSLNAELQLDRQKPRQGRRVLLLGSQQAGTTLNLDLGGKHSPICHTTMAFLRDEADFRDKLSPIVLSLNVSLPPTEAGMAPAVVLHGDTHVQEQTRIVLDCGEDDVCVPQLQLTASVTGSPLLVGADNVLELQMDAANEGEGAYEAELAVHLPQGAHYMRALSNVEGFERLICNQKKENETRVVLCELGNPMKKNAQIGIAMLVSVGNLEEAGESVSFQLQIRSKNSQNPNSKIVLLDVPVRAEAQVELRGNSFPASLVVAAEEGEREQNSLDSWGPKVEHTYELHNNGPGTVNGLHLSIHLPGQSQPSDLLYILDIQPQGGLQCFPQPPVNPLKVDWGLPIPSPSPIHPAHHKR
T1 sequence (P08514 891-1039 partner limits assumed): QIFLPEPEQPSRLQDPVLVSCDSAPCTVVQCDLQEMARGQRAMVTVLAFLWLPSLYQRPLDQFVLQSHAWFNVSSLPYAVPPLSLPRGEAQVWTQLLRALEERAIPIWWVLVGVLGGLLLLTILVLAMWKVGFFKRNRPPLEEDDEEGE
T1 sequence (P05106 27-788): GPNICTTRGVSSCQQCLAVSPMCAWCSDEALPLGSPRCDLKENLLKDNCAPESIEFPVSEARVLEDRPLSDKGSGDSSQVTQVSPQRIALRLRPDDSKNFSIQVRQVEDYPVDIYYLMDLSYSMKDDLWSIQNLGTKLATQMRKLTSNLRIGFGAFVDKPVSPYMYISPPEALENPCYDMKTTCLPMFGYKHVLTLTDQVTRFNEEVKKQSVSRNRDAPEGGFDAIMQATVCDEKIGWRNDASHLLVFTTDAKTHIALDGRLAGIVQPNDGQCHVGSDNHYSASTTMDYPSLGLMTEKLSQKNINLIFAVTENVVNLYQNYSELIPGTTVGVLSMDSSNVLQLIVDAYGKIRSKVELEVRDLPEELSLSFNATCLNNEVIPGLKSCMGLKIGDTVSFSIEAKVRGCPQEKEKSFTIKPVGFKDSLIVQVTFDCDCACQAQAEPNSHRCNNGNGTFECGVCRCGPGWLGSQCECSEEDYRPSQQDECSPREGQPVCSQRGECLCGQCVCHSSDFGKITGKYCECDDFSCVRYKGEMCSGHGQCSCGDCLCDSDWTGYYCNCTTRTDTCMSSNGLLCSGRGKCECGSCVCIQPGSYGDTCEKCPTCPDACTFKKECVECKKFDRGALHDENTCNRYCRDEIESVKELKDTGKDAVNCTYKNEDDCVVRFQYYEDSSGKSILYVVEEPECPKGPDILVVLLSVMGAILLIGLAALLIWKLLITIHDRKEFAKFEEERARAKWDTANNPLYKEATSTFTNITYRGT

SMILES | IC50 [1] | inhibition at 10 µM [1] | IC50 [2] | Ex-vivo collagen induced aggregation, Max % Inhibition ([3]; 0.003 mg/kg) | Ex-vivo collagen induced aggregation, Max % Inhibition ([3]; 0.006 mg/kg) | ED50 [4] | Ex-vivo collagen induced aggregation, Max % Inhibition ([3]; 0.005 mg/kg) | Ex-vivo collagen induced aggregation, Max % Inhibition ([3]; 0.01 mg/kg) | Ex-vivo collagen induced aggregation, Max % Inhibition ([3]; 0.1 mg/kg)
N=C(N)c1ccc(CCCCC(=O)N[C@@H](CC(=O)O)C(=O)N[C@@H](Cc2ccccc2)C(=O)O)cc1 [N-[N-[5-[4-aminoiminomethyl)phenyl-1-oxopentyl]-L-α-aspartyl]-L-phenylalanine, acetate salt] | 53 nM | 100% | 8.3 nM | 31% | 84% | – | – | – | –
N=C(N)c1ccc(CCCCC(=O)N[C@@H](CC(=O)O)C(=O)N[C@@H](Cc2ccccc2)C(=O)O)cc1 [N-[N-[5-[4-(aminoiminomethyl)phenyl]-1-oxopentyl]-L-α-aspartyl]-L-phenylalanine] | – | – | – | – | – | 0.32 µg/kg/min | – | – | –
N=C(N)c1ccc(C#CCCC(=O)N[C@@H](CC(=O)O)C(=O)N[C@@H](Cc2ccccc2)C(=O)O)cc1 [N-[5-[4-(aminoiminomethyl)phenyl]-1-oxo-4-pentynyl]-N-L-α-aspartyl-L-phenylalanine] | 90 nM | 100% | 6 nM | – | – | – | 29% | 83% | 100%
N=C(N)c1cccc(/C=C\CCCC(=O)N[C@@H](CC(=O)O)C(=O)N[C@@H](Cc2ccccc2)C(=O)O)c1 [N-[N-[6-[3-(aminoiminomethyl)phenyl]-1-oxo-5Z-hexenyl]-L-α-aspartyl]-L-phenylalanine] | 4300 nM | 100% | 600 nM | – | – | – | – | – | –
